The target of one experiment is total GR (Homo sapiens, UniProt P04150). The following applies: 12 h continuous hormone treatment, 100 nM.
Experiment [1] deals with T1, human GR phosphorylated at S211 (Homo sapiens, UniProt P04150).
T1 construct: expressed in transfected cells
T1 sequence (P04150 1-777): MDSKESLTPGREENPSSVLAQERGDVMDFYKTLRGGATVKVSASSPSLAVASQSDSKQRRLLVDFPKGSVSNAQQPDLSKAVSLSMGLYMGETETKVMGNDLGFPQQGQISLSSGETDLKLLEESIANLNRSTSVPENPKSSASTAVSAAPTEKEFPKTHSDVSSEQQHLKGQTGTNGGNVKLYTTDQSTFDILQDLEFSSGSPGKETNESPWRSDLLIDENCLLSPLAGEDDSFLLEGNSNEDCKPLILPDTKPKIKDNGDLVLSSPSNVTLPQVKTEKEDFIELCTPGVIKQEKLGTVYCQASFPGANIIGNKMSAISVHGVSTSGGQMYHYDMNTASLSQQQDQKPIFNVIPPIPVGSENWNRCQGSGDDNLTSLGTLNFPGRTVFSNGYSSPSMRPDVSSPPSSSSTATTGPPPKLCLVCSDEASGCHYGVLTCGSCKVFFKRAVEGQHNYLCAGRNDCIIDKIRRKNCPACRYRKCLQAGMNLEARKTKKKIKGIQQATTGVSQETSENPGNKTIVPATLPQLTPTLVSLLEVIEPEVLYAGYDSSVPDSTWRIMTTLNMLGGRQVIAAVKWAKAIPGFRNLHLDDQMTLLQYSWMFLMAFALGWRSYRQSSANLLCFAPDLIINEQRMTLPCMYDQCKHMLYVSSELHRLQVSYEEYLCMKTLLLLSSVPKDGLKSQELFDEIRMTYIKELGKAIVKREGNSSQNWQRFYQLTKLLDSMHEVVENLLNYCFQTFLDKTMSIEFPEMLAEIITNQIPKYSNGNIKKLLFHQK
Put plainly: Immunoblot of GR S211 phosphorylation in U2OS-hGR cell extracts. It is filed as cell-based. Particulars: 1 h; for GR phosphorylation at S211: ligand 100 nM, U2OS-hGR cells. In general terms: In western blotting, separated proteins are transferred to a membrane and probed.
Description: In FIG. 6A, U20S-hGR were treated with ethanol (−) or the ligands indicated (100 nM) for 1 hour and whole cell extracts were prepared. For antagonism experiments, a 10-fold excess of RU486 (1 μM) or ZK299 (1 μM) were added simultaneously with 100 nM Dex for 1 h prior to cell lysis. Equal amounts of protein from each treatment were analyzed by immunoblotting with either phospho-S203, phospho-S211 or HA antibodies, reflective of the amount of total GR present in each lane.
Cells were placed on ice, washed twice in phosphate-buffer saline (PBS), lysed in 0.5 ml of buffer containing 50 mM HEPES, pH 7.5, 150 mM NaCl, 1 mM EDTA, 1 mM EGTA, 1 mM NaF, 1% Triton X-100, 10% glycerol and additional protease and phosphatase inhibitors: 1 mM PMSF, 20 mM β-glycerophosphate, 8 mM sodium pyrophosphate, 1 μg/ml leupeptin, pepstatin A and aprotinin (Roche). […] The soluble supernatants were normalized for total protein concentration using the Bio-Rad protein assay (Bio-Rad Laboratories, Hercules, Calif.) and the samples were boiled for 3 min in 2×SDS sample buffer and stored at −20° C.
Cell extracts or immunoprecipitates containing GR were separated by 10% SDS-polyacrylamide gel electrophoresis (PAGE) and were transferred to Immobilon paper (Millipore Corp., Bedford, Mass.) at 110V for 80 min in Tris-Glycine transfer buffer. The membranes were blocked overnight in 5% bovine serum albumin (BSA) in Tris-buffered saline, pH 7.4 (TBS) (blocking solution) at 4° C., then were incubated in the blocking buffer with primary antibody at room temperature (RT) for 2–4 h using 1:1,000 and 1:10,000 dilution of serum for phospho-S211 (Ab353) and phospho-S203 (Ab211), respectively. […] The membranes were washed three times for 10 min in TBS/0.1% Triton X-100 and twice in TBS and incubated for 1 h at RT with 0.2 μg/ml protein A conjugated to horseradish peroxidase (HRP) (Kirkegaard and Perry Laboratories, Gaithersburg, Md.). For blots using the anti-HA-tag monoclonal antibody (α-HA; Roche), an HRP-conjugated goat-anti-mouse IgG secondary antibody was used. Blots were then washed three times for 10 min in TBS-0.1% Triton X-100, twice in TBS and developed using enhanced chemiluminescence (ECL) according to manufacturer's instructions (Amersham Pharmacia Biotech Inc., Piscataway, N.J.).

The subject of experiment [2] is GR-mediated transcriptional activation. Description: MMTV-luciferase reporter GR transcriptional activation in U2OS-hGR cells. It is filed as cell-based, human. The following applies: ligand 100 nM, 1 h. On the technique in general: In a reporter assay the amount or activity of a reporter protein is the signal.
Description: In FIG. 6B, U2OS-hGR cells were transiently transfected with the MMTV-luciferase reporter construct along with pCMV-lacZ as an internal control. After 16 h, the cells were treated with ligands indicated (100 nM) for 1 h, conditions identical to those used for the immunoblot analysis, and luciferase activity determined.
Experiment [3] addresses T2, human GR phosphorylated at S203 (Homo sapiens, UniProt P04150).
T2 sequence (P04150 1-777): T1 sequence (P04150 1-777)
Particulars: ligand 100 nM, 1 h, U2OS-hGR cells.
Description: In FIG. 6A, U20S-hGR were treated with ethanol (−) or the ligands indicated (100 nM) for 1 hour and whole cell extracts were prepared. For antagonism experiments, a 10-fold excess of RU486 (1 μM) or ZK299 (1 μM) were added simultaneously with 100 nM Dex for 1 h prior to cell lysis. Equal amounts of protein from each treatment were analyzed by immunoblotting with either phospho-S203, phospho-S211 or HA antibodies, reflective of the amount of total GR present in each lane. In FIG. 6B, U2OS-hGR cells were transiently transfected with the MMTV-luciferase reporter construct along with pCMV-lacZ as an internal control. After 16 h, the cells were treated with ligands indicated (100 nM) for 1 h, conditions identical to those used for the immunoblot analysis, and luciferase activity determined.
Cells were placed on ice, washed twice in phosphate-buffer saline (PBS), lysed in 0.5 ml of buffer containing 50 mM HEPES, pH 7.5, 150 mM NaCl, 1 mM EDTA, 1 mM EGTA, 1 mM NaF, 1% Triton X-100, 10% glycerol and additional protease and phosphatase inhibitors: 1 mM PMSF, 20 mM β-glycerophosphate, 8 mM sodium pyrophosphate, 1 μg/ml leupeptin, pepstatin A and aprotinin (Roche). Lysates were centrifuged at 12,000 rpm for 15 min at 4° C. […]

In a further experiment the target is T3, GR (Homo sapiens, UniProt P04150).
T3 sequence (P04150 1-777): T1 sequence (P04150 1-777)
The following applies: cited from earlier work.

SMILES strings stand for the structures. Entries after “also recorded” stand apart in the source; their conditions may differ.

Description for total GR: FIGS. 7A–7C are immunoblots and graph showing the kinetics of S203 and S211 phosphorylation in response to Dex treatment. U2OS-hGR cells were treated with ethanol (−) or Dex (100 nM) for the time indicated. Whole cell lysates were prepared, normalized and analyzed by immunoblotting with phospho-S203, phospho-S211 or HA antibodies. Immunoblot images of GR phosphorylated at S203 and S211 in the first hour of Dex treatment (FIG. 7A) or throughout 12 h of continuous Dex treatment (FIG. 7B); the total GR in each sample was determined by immunoblotting for HA. In FIG. 7C, quantitative analysis of immunoblot results in panel B normalized to total GR detected by HA. The data shown are from a single experiment that is representative of at least three independent experiments. […]
Cell extracts or immunoprecipitates containing GR were separated by 10% SDS-polyacrylamide gel electrophoresis (PAGE) and were transferred to Immobilon paper (Millipore Corp., Bedford, Mass.) at 110V for 80 min in Tris-Glycine transfer buffer. […] Endogenous GR was detected using the N499 polyclonal antibody, raised against residues 1–499 of the human GR. […] Quantitative analysis of immunoblots was performed using the NIH image software package (version 1.62).

As to `C[C@@H]1C[C@H]2[C@@H]3CCC4=CC(=O)C=C[C@]4(C)[C@@]3(F)[C@@H](O)C[C@]2(C)[C@@]1(O)C(=O)CO` [Dex, dexamethasone], the “Reduction of total GR” value at total GR was about 80%.

For `C[C@]12C=CC(=O)C=C1CC[C@@H]1[C@@H]2[C@@H](O)C[C@@]2(C)[C@H]1CC[C@]2(O)C(=O)CO` [Prednisolone], in experiment [1], the “GR phosphorylation at S211” value is recorded as “promoted S211 phosphorylation; also recorded: induced robust GR phosphorylation at S211”. Moreover, in experiment [2], the “GR transcriptional activation (MMTV-luciferase)” value is given as “pattern mirrored in the GR transcriptional activation assay”.

Take `CN(C)c1ccc([C@H]2C[C@]3(C)[C@@H](CC[C@]3(O)CCCO)[C@@H]3CCC4=CC(=O)CCC4=C32)cc1` [ZK299]: the “Blocking of Dex-dependent GR phosphorylation” value in experiment [1] (10-fold molar excess (1 μM) added with 100 nM Dex) was “not as effective”. Further, in experiment [1], the “GR phosphorylation at S211” value is reported as “almost no effect”. Further, the “GR phosphorylation at S203” value in experiment [3] was “almost no effect”.

Regarding `C=C1[C@@H](O)[C@@H]2O[C@]3(CC[C@H](/C=C/[C@@H](C)[C@@H]4CC(C)=C[C@@]5(O[C@H](C[C@@](C)(O)C(=O)O)CC[C@H]5O)O4)O3)CC[C@H]2O[C@@H]1[C@@H](O)C[C@H](C)[C@H]1O[C@@]2(CCCCO2)CC[C@H]1C` [okadaic acid], the “Effect on GR reported in the literature” value on GR is given as “results in GR hyperphosphorylation”.

Values taken from US6995243B2, “Antibodies that recognize and bind phosphorylated human glucocorticoid receptor and methods of using same” (New York University, priority 2002, dated 2006).
